Results published in patent publication US20040048772A1, “Preventives for arthritis” (priority 2001, published 2004).

Columns and labels:
[1] = system: systemic injury of ear and tail; chondral injury at joints; conditions: in vivo; cited from earlier work
[2] = system: animal model for arthritis; conditions: administration after induction of arthritis; cited from earlier work
[3] = system: Mice with Type II Collagen-Induced Arthritis; experiment: Effect of N-acetylhydroxyproline in mice with type II collagen-induced arthritis (arthritis score, preventive feeding); format: in vivo, DBA/1J mice; conditions: for Score of arthritis: mean±SE, N=20, score 0-16 points
From the text: Effect of N-acetylhydroxyproline in Mice with Type II Collagen-Induced Arthritis
It is known that arthritis is induced in DBA/1J mice (Charles River) by administering type II collagen two times.
As the first administration of type II collagen, a solution prepared by mixing an equal amount of type II collagen [Collagen Gijutsu Kenshu-Kai (MCK)] and Freund's complete adjuvant (Iatron) and emulsifying the mixture using a homogenizer was intradermally administered to 6-week old male DBA/1J mice (Charles River) in an amount of 100 μl per one animal.
At day 21 after the first administration of type II collagen, as the second administration of type II collagen, a solution prepared by mixing an equal amount of type II collagen and Freund's complete adjuvant and emulsifying the mixture using a homogenizer in a similar manner was intradermally administered to the animals in an amount of 100 μl per one animal. In this manner, arthritis was induced in mice.
Starting on the day of the first administration of type II collagen, the mice were bred by feeding a powder feed, CE-2 (CLEA Japan), containing the addition of 0.02, 0.1 or 0.5% (hereinafter % refers to wt %) of N-acetylhydroxyproline (Kyowa Hakko Kogyo). As control, a group of mice were fed with the powder feed CE-2 containing no additive. At days 23, 27, 30, 33, 36, 40 and 42 after the first administration of type II collagen, the extent of the onset of arthritis was scored according to the following indices.
Scoring was carried out by applying 0-4 points with respect to […] of mice: 0: no symptom; 1: swelling of one finger or swelling (slight) of ankles; 2: swelling of 1-3 fingers or swelling of ankles; 3: swelling of 3-5 fingers plus swelling of ankles; and 4: swelling of all the fingers plus swelling of ankles. Each mouse was scored the total of the points of 4 paws, namely, 0-16 points. Twenty mice each were subjected to observation with respect to each of the conditions.
In the table, the figures show the score under different treatment conditions, which is given as mean±SE (N=20).
In the table, “no treatment” means no treatment with type II collagen.

## CC(=O)N1C[C@H](O)C[C@H]1C(=O)O [N-Acetylhydroxyproline, N-acetylhydroxyproline]
[1]
  Effect on chondral injury at joints: no effect
  Effect on systemic injury of ear and tail: shows a therapeutic effect
[2]
  Aggravation of arthritis: can prevent aggravation of arthritis
[3]; 0.02% in powder feed CE-2
  Rising of the score of arthritis compared with feed containing no additive: suppressive tendency
[3]; 0.02% in powder feed CE-2, day 23
  Score of arthritis: 0.0 ± 0.0
[3]; 0.02% in powder feed CE-2, day 27
  Score of arthritis: 4.2 ± 0.8
[3]; 0.02% in powder feed CE-2, day 30
  Score of arthritis: 7.6 ± 0.9
[3]; 0.02% in powder feed CE-2, day 33
  Score of arthritis: 9.3 ± 0.8
[3]; 0.02% in powder feed CE-2, day 36
  Score of arthritis: 9.7 ± 0.9
[3]; 0.02% in powder feed CE-2, day 40
  Score of arthritis: 10.0 ± 0.8
[3]; 0.02% in powder feed CE-2, day 42
  Score of arthritis: 10.1 ± 0.9
[3]; 0.02% in powder feed CE-2 from first collagen administration, day 0
  Score of arthritis: 0.0 ± 0.0
[3]; 0.1% in powder feed CE-2
  Rising of the score of arthritis compared with feed containing no additive: suppressive tendency
[3]; 0.1% in powder feed CE-2, day 23
  Score of arthritis: 0.1 ± 0.1
[3]; 0.1% in powder feed CE-2, day 27
  Score of arthritis: 4.6 ± 0.9
[3]; 0.1% in powder feed CE-2, day 30
  Score of arthritis: 7.3 ± 1.0
[3]; 0.1% in powder feed CE-2, day 33
  Score of arthritis: 8.3 ± 1.1
[3]; 0.1% in powder feed CE-2, day 36
  Score of arthritis: 8.6 ± 1.0
[3]; 0.1% in powder feed CE-2, day 40
  Score of arthritis: 8.5 ± 1.0
[3]; 0.1% in powder feed CE-2, day 42
  Score of arthritis: 8.7 ± 1.0
[3]; 0.1% in powder feed CE-2 from first collagen administration, day 0
  Score of arthritis: 0.0 ± 0.0
[3]; 0.5% in powder feed CE-2
  Scores of arthritis compared with control (feed containing no addition): significantly low
[3]; 0.5% in powder feed CE-2, day 23
  Score of arthritis: 0.0 ± 0.0
[3]; 0.5% in powder feed CE-2, day 27
  Score of arthritis: 3.8 ± 0.7
[3]; 0.5% in powder feed CE-2, day 30
  Score of arthritis: 5.9 ± 0.9
[3]; 0.5% in powder feed CE-2, day 33
  Score of arthritis: 7.7 ± 0.8
[3]; 0.5% in powder feed CE-2, day 36
  Score of arthritis: 8.1 ± 0.8
[3]; 0.5% in powder feed CE-2, day 40
  Score of arthritis: 8.4 ± 0.7
[3]; 0.5% in powder feed CE-2, day 42
  Score of arthritis: 8.5 ± 0.7
[3]; 0.5% in powder feed CE-2 from first collagen administration, day 0
  Score of arthritis: 0.0 ± 0.0
[3]; taken previously, before the onset of arthritis
  Onset of arthritis: could be suppressed
